assay: recombinant UMI read abundance after kanamycin selection (control-corrected) (log10(CPM+1)); higher = more efficient recombination; extreme values may be limits of the assay; sequences stand for … in AGTGCAGAGAAAATCGGCCAGTTTTCTCTGCCTGCAGTCCGCATGCCGTGGGACCCCTTGGGTTCTAACCTGTTGCCTAGATTTATGCAGCGGACTGCCTTTCTCCCAAAGTGATAAACCGG…AGGTTGGTTTCACT; site = the 11-nt donor
Summary of the method: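 Sequencing read counts were converted to CPM, averaged over two replicates and scaled by control-derived factors. Results are given as log10(CPM+1). The reads covered the donor–target junction of recombinant UMIs from a pooled Escherichia coli screen of donor and donor-binding-loop pairs for the IS621 bridge recombinase.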
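Note: IS621 bridge recombinase in Escherichia coli cells against a fixed T5 target plasmid.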

Row | Sequence | recombinant UMI read abundance (log10)
1 | GGGCTCACATGGACCGGTTTTCCCGGTAATCCGTATTTGAT (site GTGCTCACTAT) | 1.11
2 | GGGGAACCATGGACCGGTTTTCCCGGTAATCCGTATTTGAT (site AGGGAACCTAT) | 0
3 | GGGGAACCATGGACCGGTTTTCCCGGTAATCCGTATTTGAT (site CGGGAACCTAT) | 0
4 | GGGGAACCATGGACCGGTTTTCCCGGTAATCCGTATTTGAT (site GGGGAACCTAT) | 0
5 | GGGGAACCATGGACCGGTTTTCCCGGTAATCCGTATTTGAT (site TGGGAACCTAT) | 0
6 | GGGGACTCATGGACCGGTTTTCCCGGTAATCCGTATTTGCA (site GGGGACTCTTG) | 1.89
7 | GGGGAGACATGGACCGGTTTTCCCGGTAATCCGTATTTGCC (site GGGGAGACTGG) | 2.07
8 | GGGGATGCATGGACCGGTTTTCCCGGTAATCCGTATTTGGC (site GGGGATGCTGC) | 0
9 | GGGGCACCATGGACCGGTTTTCCCGGTAATCCGTATTTGTA (site GGGGCACCTTA) | 0
10 | GGGGCACCATGGACCGGTTTTCCCGGTAATCCGTATTTGTA (site GGGGCACCTTC) | 0.0203
11 | GGGGCACCATGGACCGGTTTTCCCGGTAATCCGTATTTGTA (site GGGGCACCTTG) | 0.00274
12 | GGGGCACCATGGACCGGTTTTCCCGGTAATCCGTATTTGTA (site GGGGCACCTTT) | 0.0754
13 | GGGGCAGCATGGACCGGTTTTCCCGGTAATCCGTATTTGCA (site GGGGCAACTTG) | 1.47
14 | GGGGCAGCATGGACCGGTTTTCCCGGTAATCCGTATTTGCA (site GGGGCACCTTG) | 0
15 | GGGGCAGCATGGACCGGTTTTCCCGGTAATCCGTATTTGCA (site GGGGCAGCTTG) | 2.13
16 | GGGGCAGCATGGACCGGTTTTCCCGGTAATCCGTATTTGCA (site GGGGCATCTTG) | 0.336
17 | GGGGCCCCATGGACCGGTTTTCCCGGTAATCCGTATTTGGC (site GGGGCCCCTGC) | 0
18 | GGGGCGCCATGGACCGGTTTTCCCGGTAATCCGTATTTGCA (site GGGGCACCTTG) | 0.0167
19 | GGGGCGCCATGGACCGGTTTTCCCGGTAATCCGTATTTGCA (site GGGGCCCCTTG) | 0
20 | GGGGCGCCATGGACCGGTTTTCCCGGTAATCCGTATTTGCA (site GGGGCGCCTTG) | 0.0101
21 | GGGGCGCCATGGACCGGTTTTCCCGGTAATCCGTATTTGCA (site GGGGCTCCTTG) | 0
22 | GGGGCTCCATGGACCGGTTTTCCCGGTAATCCGTATTTGCA (site GGGGCACCTTG) | 0.0623
23 | GGGGCTCCATGGACCGGTTTTCCCGGTAATCCGTATTTGCA (site GGGGCCCCTTG) | 0.407
24 | GGGGCTCCATGGACCGGTTTTCCCGGTAATCCGTATTTGCA (site GGGGCGCCTTG) | 0.0195
25 | GGGGCTCCATGGACCGGTTTTCCCGGTAATCCGTATTTGCA (site GGGGCTCCTTG) | 1.13

Row | Sequence | recombinant UMI read abundance (log10)
26 | GGGGTAGCATGGACCGGTTTTCCCGGTAATCCGTATTTGTC (site GGGGTAGCTGA) | 2.71
27 | GGGTAATCATGGACCGGTTTTCCCGGTAATCCGTATTTGAT (site GGGTAATCTAT) | 3.04
28 | GGGTACGCATGGACCGGTTTTCCCGGTAATCCGTATTTGTA (site GGGTACGCTTA) | 2.47
29 | GGGTAGACATGGACCGGTTTTCCCGGTAATCCGTATTTGCC (site GGATAGACTGG) | 2.81
30 | GGGTAGACATGGACCGGTTTTCCCGGTAATCCGTATTTGCC (site GGCTAGACTGG) | 0
31 | GGGTAGACATGGACCGGTTTTCCCGGTAATCCGTATTTGCC (site GGGTAGACTGG) | 2.39
32 | GGGTAGACATGGACCGGTTTTCCCGGTAATCCGTATTTGCC (site GGTTAGACTGG) | 0.949
33 | GGTAATTCATGGACCGGTTTTCCCGGTAATCCGTATTTGGT (site GGTAATTCTAC) | 1.18
34 | GGTACATCATGGACCGGTTTTCCCGGTAATCCGTATTTGTT (site GGTACATCTAA) | 0.0632
35 | GGTACATCATGGACCGGTTTTCCCGGTAATCCGTATTTGTT (site GGTACCTCTAA) | 0.00401
36 | GGTACATCATGGACCGGTTTTCCCGGTAATCCGTATTTGTT (site GGTACGTCTAA) | 0.0133
37 | GGTACATCATGGACCGGTTTTCCCGGTAATCCGTATTTGTT (site GGTACTTCTAA) | 0.00584
38 | GGTACGTCATGGACCGGTTTTCCCGGTAATCCGTATTTGGA (site GGTACGTCTTC) | 0.695
39 | GGTACTCCATGGACCGGTTTTCCCGGTAATCCGTATTTGTA (site GGTACTCCTTA) | 0.301
40 | GGTACTGCATGGACCGGTTTTCCCGGTAATCCGTATTTGGA (site GGTACTGCTTC) | 0.135
41 | GGTACTTCATGGACCGGTTTTCCCGGTAATCCGTATTTGTT (site GGTACATCTAA) | 0.0111
42 | GGTACTTCATGGACCGGTTTTCCCGGTAATCCGTATTTGTT (site GGTACCTCTAA) | 0.0128
43 | GGTACTTCATGGACCGGTTTTCCCGGTAATCCGTATTTGTT (site GGTACGTCTAA) | 0.011
44 | GGTACTTCATGGACCGGTTTTCCCGGTAATCCGTATTTGTT (site GGTACTTCTAA) | 0.456
45 | GGTAGGTCATGGACCGGTTTTCCCGGTAATCCGTATTTGTT (site GGTAAGTCTAA) | 0.00393
46 | GGTAGGTCATGGACCGGTTTTCCCGGTAATCCGTATTTGTT (site GGTACGTCTAA) | 0.0163
47 | GGTAGGTCATGGACCGGTTTTCCCGGTAATCCGTATTTGTT (site GGTAGGTCTAA) | 0.00338
48 | GGTAGGTCATGGACCGGTTTTCCCGGTAATCCGTATTTGTT (site GGTATGTCTAA) | 0.0159
49 | GGTAGTGCATGGACCGGTTTTCCCGGTAATCCGTATTTGCC (site GGTAGTGCTGG) | 1.61
50 | GGTATGGCATGGACCGGTTTTCCCGGTAATCCGTATTTGCA (site GGTATGGCTTG) | 1.9

Row | Sequence | recombinant UMI read abundance (log10)
51 | GGTCATCCATGGACCGGTTTTCCCGGTAATCCGTATTTGAA (site GGTCATCCTTT) | 0.0104
52 | GGTCATTCATGGACCGGTTTTCCCGGTAATCCGTATTTGTG (site GGTCATTCTCA) | 1.05
53 | GGTCCAACATGGACCGGTTTTCCCGGTAATCCGTATTTGAA (site GGTCCAACTTA) | 0.0074
54 | GGTCCAACATGGACCGGTTTTCCCGGTAATCCGTATTTGAA (site GGTCCAACTTC) | 0.00549
55 | GGTCCAACATGGACCGGTTTTCCCGGTAATCCGTATTTGAA (site GGTCCAACTTG) | 0
56 | GGTCCAACATGGACCGGTTTTCCCGGTAATCCGTATTTGAA (site GGTCCAACTTT) | 0.0109
57 | GGTCCAACATGGACCGGTTTTCCCGGTAATCCGTATTTGTT (site GGTCCAACTAA) | 0.0107
58 | GGTCCAACATGGACCGGTTTTCCCGGTAATCCGTATTTGTT (site GGTCCAACTCA) | 0.0106
59 | GGTCCAACATGGACCGGTTTTCCCGGTAATCCGTATTTGTT (site GGTCCAACTGA) | 0.00734
60 | GGTCCAACATGGACCGGTTTTCCCGGTAATCCGTATTTGTT (site GGTCCAACTTA) | 0.0123
61 | GGTCCGACATGGACCGGTTTTCCCGGTAATCCGTATTTGTA (site GGTCCAACTTA) | 0.0275
62 | GGTCCGACATGGACCGGTTTTCCCGGTAATCCGTATTTGTA (site GGTCCCACTTA) | 0.00256
63 | GGTCCGACATGGACCGGTTTTCCCGGTAATCCGTATTTGTA (site GGTCCGACTTA) | 0.0268
64 | GGTCCGACATGGACCGGTTTTCCCGGTAATCCGTATTTGTA (site GGTCCTACTTA) | 0.0182
65 | GGTCCGGCATGGACCGGTTTTCCCGGTAATCCGTATTTGTC (site GGTCCGGCTGA) | 0
66 | GGTCCTACATGGACCGGTTTTCCCGGTAATCCGTATTTGTA (site GGTCCAACTTA) | 0.00723
67 | GGTCCTACATGGACCGGTTTTCCCGGTAATCCGTATTTGTA (site GGTCCCACTTA) | 0.0198
68 | GGTCCTACATGGACCGGTTTTCCCGGTAATCCGTATTTGTA (site GGTCCGACTTA) | 0.0128
69 | GGTCCTACATGGACCGGTTTTCCCGGTAATCCGTATTTGTA (site GGTCCTACTTA) | 0.0187
70 | GGTCCTCCATGGACCGGTTTTCCCGGTAATCCGTATTTGTT (site GGTCCTCCTAA) | 0.025
71 | GGTCGAGCATGGACCGGTTTTCCCGGTAATCCGTATTTGCA (site GATCGAGCTTG) | 0.273
72 | GGTCGAGCATGGACCGGTTTTCCCGGTAATCCGTATTTGCA (site GCTCGAGCTTG) | 0.0115
73 | GGTCGAGCATGGACCGGTTTTCCCGGTAATCCGTATTTGCA (site GGTCGAGCTTG) | 1.83
74 | GGTCGAGCATGGACCGGTTTTCCCGGTAATCCGTATTTGCA (site GTTCGAGCTTG) | 0.824
75 | GGTCGCTCATGGACCGGTTTTCCCGGTAATCCGTATTTGCT (site GGTCGCTCTAG) | 0.782
